45 compounds from patent publication US7767854B2, “N-substituted phenylacetamide derivative and pharmaceutical composition containing the same” (Dainippon Sumitomo Pharma Co., Ltd., priority 2005, dated 2010) can be followed below.

For the assay, the system named is male Std: Wistar rats. The assay is described as follows: Pain test by plantar thermal stimuli (plantar test). The class given is in vivo. Particulars: Rattus norvegicus, 4 h, 50 μl of 0.03% (W/V) solution i.pl. into right hind-paw; 4 hours after administration; cut-off 25 seconds; read-out: % MPE (percent maximum possible effect, withdrawal latency). How it is done: Experiment 1: Pain Test by Plantar Thermal Stimuli (Plantar Test)
In the present experiment, the analgesic effect of the compounds of the invention was evaluated by the measurements of withdrawal latency to noxious thermal stimuli, according to the methods of Hargreaves, et al., [Pain, 32, 77-88 (1988)] and Field, et al., [J. Pharmacol. Exp. Ther., 282, 1242-1246 (1997)].
In detail, the experiment was carried out using male Std: Wistar rats (4 rats/group; body weight, 170-220 g) and a plantar test device (Model 7370, Ugo Basile) with infrared beam as a heat source. The rat was put into an experimental cage that is an acrylic box whose bottom is made of glass and was habituated therein. Then, the infrared beam was radiated to the plantar surface of right hind-paw thereof through the floor glass, and the withdrawal latency was measured every 5 minutes, 3 times. The intension of the infrared beam was adjusted so that the pre-drug administration latency was about 10 seconds. The cut-off time was set at 25 seconds in order to prevent a paw burn. The average of the latencies was calculated, and then it was defined as the value of the pre-drug administration latency of the test compound.
Next day, 50 μl of each solution of the test compounds [the compounds of the invention, the compounds of the comparative Examples and capsaicin (Sigma, U.S.A.)] or 50 μl of vehicle solvent (reference) was given to a right hind-paw of the rat by intraplantar injection (i. pl.) using a micro-syringe. The test compound was dissolved in a saline solution containing 10% Tween 80 (Sigma, U.S.A) and 10% ethanol to give a 0.03% (W/V) solution. The saline solution containing 10% Tween 80 and 10% ethanol was used as reference. Four hours after i.pl. administration of each the test compound or the reference to the rats, the experiment mentioned above was carried out, and then the post-drug administration latency was measured. The analgesic effects thereof were calculated with the following formula, which was known as a percent maximum possible effect (% MPE). % MPE=[(the value of post-drug latency−the value of pre-drug latency)/(25*−the value of pre-drug latency)]×100 *: cut-off time
As for `COc1cc(CC(=O)N[C@H]2CC[C@H](CCC3CCC3)CC2)ccc1O` [Example 59, N-[trans-4-(2-cyclobutylethyl)cyclohexyl]-2-(4-hydroxy-3-methoxyphenyl)acetamide], the change in vivo at 300 µg/mL was 74.7%.
Take `CCC/C=C/[C@H]1CC[C@@H](NC(=O)Cc2ccc(O)c(OC)c2)CC1` [Example 60, 2-(4-hydroxy-3-methoxyphenyl)-N-{cis-4-[(E)-1-pentenyl]cyclohexyl}acetamide]: the change in vivo at 300 µg/mL worked out at 91.4%.
Next, `C/C=C/[C@H]1CC[C@@H](NC(=O)Cc2ccc(O)c(OC)c2)CC1` [Example 61]: 49.4%.
In the case of `CC/C=C/[C@H]1CC[C@@H](NC(=O)Cc2ccc(O)c(OC)c2)CC1` [Example 62] it was 86.3%.
In the case of `COc1cc(CC(=O)N[C@H]2CC[C@@H](/C=C/C(C)C)CC2)ccc1O` [Example 63] it was 96.4%; in that of `COc1cc(CC(=O)N[C@H]2CC[C@@H](/C=C/C3CC3)CC2)ccc1O` [Example 64], 71.1%; in that of `COc1cc(CC(=O)N[C@H]2CC[C@@H](/C=C/CC(C)C)CC2)ccc1O` [Example 65], 100%.
Regarding `COc1cc(CC(=O)N[C@H]2CC[C@@H](/C=C/C3CCC3)CC2)ccc1O` [Example 66], the change in vivo at 300 µg/mL came to 88%.
With `COc1cc(CC(=O)N[C@H]2CC[C@@H](/C=C/CC3CC3)CC2)ccc1O` [Example 67], the change in vivo at 300 µg/mL was 55.6%.
In the case of `CCC[C@H]1CC[C@@H](NC(=O)Cc2ccc(O)c(OC)c2)CC1` [Example 68, 2-(4-hydroxy-3-methoxyphenyl)-N-(cis-4-propylcyclohexyl)acetamide] it was 81.6%; in that of `COc1cc(CC(=O)N[C@H]2CC[C@@H](CCCC(C)C)CC2)ccc1O` [Example 69], 79.9%.
Next, `COc1cc(CC(=O)N[C@H]2CC[C@@H](CCC3CCC3)CC2)ccc1O` [Example 70]: 92.6%; `COc1cc(CC(=O)N[C@H]2CC[C@@H](CCCC3CC3)CC2)ccc1O` [Example 71]: 87.9%; `C=C(C)/C=C/[C@H]1CC[C@H](NC(=O)Cc2ccc(O)c(OC)c2)CC1` [Example 72, 2-(4-hydroxy-3-methoxyphenyl)-N-{trans-4-[(E)-3-methyl-1,3-butadienyl]cyclohexyl}acetamide]: 75.4%.
Consider `C/C=C\CC[C@H]1CC[C@H](NC(=O)Cc2ccc(O)c(OC)c2)CC1` [Example 73, 2-(4-hydroxy-3-methoxyphenyl)-N-{trans-4-[(Z)-3-pentenyl]cyclohexyl}acetamide], for which the change in vivo at 300 µg/mL is 74.1%.
Take `C=CCC[C@H]1CC[C@H](NC(=O)Cc2ccc(O)c(OC)c2)CC1` [Example 74, N-[trans-4-(3-butenyl)cyclohexyl]-2-(4-hydroxy-3-methoxyphenyl)acetamide]: the change in vivo at 300 µg/mL worked out at 57.1%.
Next, `C/C=C/CC[C@H]1CC[C@H](NC(=O)Cc2ccc(O)c(OC)c2)CC1` [Example 75, 2-(4-hydroxy-3-methoxyphenyl)-N-{trans-4-[(E)-3-pentenyl]cyclohexyl}acetamide]: 74.4%.
Next, `COc1cc(CC(=O)NC2CCC(=C3CCCCC3)CC2)ccc1O` (stereo not drawn) [Example 76, N-(4-cyclohexylidenecyclohexyl)-2-(4-hydroxy-3-methoxyphenyl)acetamide]: 71%; `CCC(CC)=C1CCC(NC(=O)Cc2ccc(O)c(OC)c2)CC1` (stereo not drawn) [Example 77]: 78.6%.
Next, `CCCC(CCC)=C1CCC(NC(=O)Cc2ccc(O)c(OC)c2)CC1` (stereo not drawn) [Example 78]: 82.8%; `COc1cc(CC(=O)NC2CCC(=C3CCC3)CC2)ccc1O` (stereo not drawn) [Example 79]: 33.6%; `COc1cc(CC(=O)NC2CCC(=C3CCCC3)CC2)ccc1O` (stereo not drawn) [Example 80]: 37%.
For the compound `COc1cc(CC(=O)NC2CCC(=C3CCCCCC3)CC2)ccc1O` (stereo not drawn) [Example 81], the change in vivo at 300 µg/mL is 94.4%.
In the case of `COc1cc(CC(=O)NC2CCC(=C(C)C)CC2)ccc1O` (stereo not drawn) [Example 82, 2-(4-hydroxy-3-methoxyphenyl)-N-(4-isopropylidenecyclohexyl)acetamide] it was 68.4%.
In the case of `COc1cc(CC(=O)N[C@H]2CC[C@H](C3CCCCC3)CC2)ccc1O` [Example 83, N-(trans-4-cyclohexylcyclohexyl)-2-(4-hydroxy-3-methoxyphenyl)acetamide] it was 77.4%.
Next, `CCC(CC)[C@H]1CC[C@H](NC(=O)Cc2ccc(O)c(OC)c2)CC1` [Example 84]: 76.9%.
As to `CCCC(CCC)[C@H]1CC[C@H](NC(=O)Cc2ccc(O)c(OC)c2)CC1` [Example 85], the change in vivo at 300 µg/mL came to 49.3%.
In the case of `COc1cc(CC(=O)N[C@H]2CC[C@H](C3CCC3)CC2)ccc1O` [Example 86] it was 68.6%.
Next, `COc1cc(CC(=O)N[C@H]2CC[C@H](C3CCCCCC3)CC2)ccc1O` [Example 87]: 80.1%.
In the case of `CCC(CC)C1=CCC(NC(=O)Cc2ccc(O)c(OC)c2)CC1` (stereo not drawn) [Example 88, 2-(4-hydroxy-3-methoxyphenyl)-N-[4-(3-pentyl)-3-cyclohexenyl]acetamide] it was 95.5%; in that of `CCCC(CCC)C1=CCC(NC(=O)Cc2ccc(O)c(OC)c2)CC1` (stereo not drawn) [Example 89, N-[4-(4-heptyl)-3-cyclohexenyl]-2-(4-hydroxy-3-methoxyphenyl)acetamide], 100%; in that of `COc1cc(CC(=O)N[C@H]2CC[C@H](C=C3CCC3)CC2)ccc1O` [Example 91, N-[trans-4-(cyclobutylidenemethyl)-cyclohexyl]-2-(4-hydroxy-3-methoxyphenyl)acetamide], 74.2%.
As for `COc1cc(CC(=O)N[C@H]2CC[C@H](CC3CCC3)CC2)ccc1O` [Example 93, N-[trans-4-(cyclobutylmethyl)cyclohexyl]-2-(4-hydroxy-3-methoxyphenyl)acetamide], the change in vivo at 300 µg/mL came out at 69.7%.
In the case of `C/C=C\C[C@H]1CC[C@H](NC(=O)Cc2ccc(O)c(OC)c2)CC1` [Example 94, N-{trans-4-[(Z)-2-butenyl]cyclohexyl}-2-(4-hydroxy-3-methoxyphenyl)acetamide] it was 69.1%.
In the case of `COc1cc(CC(=O)N[C@H]2CC[C@@H](C=C(C)C)CC2)ccc1O` [Example 95, 2-(4-hydroxy-3-methoxyphenyl)-N-[cis-4-(2-methyl-1-propenyl)cyclohexyl]acetamide], the change in vivo at 300 µg/mL turned out to be 88.8%.
As to `COc1cc(CC(=O)N[C@H]2CC[C@@H](CC(C)C)CC2)ccc1O` [Example 96, 2-(4-hydroxy-3-methoxyphenyl)-N-[cis-4-(2-methylpropyl)cyclohexyl]acetamide], the change in vivo at 300 µg/mL is 80.4%.
With `C/C=C(\CC)[C@H]1CC[C@@H](NC(=O)Cc2ccc(O)c(OC)c2)CC1` [Example 97, N-{cis-4-[(E)-1-ethyl-1-propenyl]-cyclohexyl}-2-(4-hydroxy-3-methoxyphenyl)acetamide], the change in vivo at 300 µg/mL is 63.8%.
Next, `CCC(CC)[C@H]1CC[C@@H](NC(=O)Cc2ccc(O)c(OC)c2)CC1` [Example 98, 2-(4-hydroxy-3-methoxyphenyl)-N-[cis-4-(3-pentyl)cyclohexyl]acetamide]: 74.6%; `COc1cc(CC(=O)N[C@H]2CC[C@H](CCCCF)CC2)ccc1O` [Example 99, N-[trans-4-(4-fluorobutyl)cyclohexyl]-2-(4-hydroxy-3-methoxyphenyl)acetamide]: 55.8%; `COc1cc(CC(=O)N[C@H]2CC[C@H](CC3CC3)CC2)ccc1O` [Example 100, N-(trans-4-cyclopropylmethylcyclohexyl)-2-(4-hydroxy-3-methoxyphenyl)acetamide]: 44.5%.
As to `COc1cc(CC(=O)N[C@H]2CC[C@H](/C=C/CC(F)(F)F)CC2)ccc1O` [Example 102], the change in vivo at 300 µg/mL was found to be 56.6%.
Next, `COc1cc(CC(=O)N[C@H]2CC[C@H](/C=C/CCF)CC2)ccc1O` [Example 103]: 36.7%; `COc1cc(CC(=O)NC2CCC3(CCCCC3)CC2)ccc1O` [Example 105, 2-(4-hydroxy-3-methoxyphenyl)-N-(spiro[5.5]undec-3-yl)acetamide]: 63.4%; `CCC1(CC)CCC(NC(=O)Cc2ccc(O)c(OC)c2)CC1` [Example 106]: 51.5%.
Next, `CCCCC1(CC)CCC(NC(=O)Cc2ccc(O)c(OC)c2)CC1` (stereo not drawn) [Example 107]: 85.2%.
